Where two headings read alike, the source gives them in different places.
Key:
5-HT1A receptor [1] = molecular target: T1, 5-HT1A receptor (Homo sapiens, UniProt P08908); experiment: 5-HT1A receptor affinity: displacement of [3H] 8-OH-DPAT; type: binding; set-up: expressed in transfected cells; details: for Ki: displacement of [3H] 8-OH-DPAT, CHO cells stably transfected with human 5-HT1A receptors, read-out: 5-HT1A Receptor Affinity Ki; for inhibition at 1 µM: read-out: 5-HT1A Receptor Affinity, % @ 1 μM
T1 sequence (P08908 1-422): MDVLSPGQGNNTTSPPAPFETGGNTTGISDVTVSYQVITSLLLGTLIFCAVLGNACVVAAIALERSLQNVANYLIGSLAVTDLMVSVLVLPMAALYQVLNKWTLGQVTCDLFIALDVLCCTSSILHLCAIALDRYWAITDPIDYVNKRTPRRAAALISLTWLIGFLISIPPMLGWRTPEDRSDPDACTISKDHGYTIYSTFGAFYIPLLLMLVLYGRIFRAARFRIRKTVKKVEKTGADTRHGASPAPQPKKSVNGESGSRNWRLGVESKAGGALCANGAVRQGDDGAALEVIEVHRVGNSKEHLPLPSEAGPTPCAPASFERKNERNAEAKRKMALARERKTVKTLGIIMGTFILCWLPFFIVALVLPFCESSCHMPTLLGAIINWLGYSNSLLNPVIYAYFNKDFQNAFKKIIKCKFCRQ

5-HT1A receptor [2] = molecular target: T1, 5-HT1A receptor; experiment: cAMP accumulation assay, 5-HT1A function; type: cell-based; details: for IC50: cells marked IC50 (antagonist), read-out: 5-HT1A Function cAMP IC50; for Emax: read-out: 5-HT1A Function cAMP (Emax); for EC50: cells marked EC50 (agonist)
serotonin transporter = molecular target: T2, serotonin transporter (Rattus norvegicus, UniProt P31652); experiment: 5-HT transporter affinity: displacement of 3H-paroxetine from male rat cortical membranes; type: binding; details: displacement of 3H-paroxetine; male rat cortical membranes; read-out: 5-HT Transporter Affinity Ki
T2 construct: displace ^3H-paroxetine from male rat cortical membranes; from tissue; host or cells: male rat cortical membranes
T2 sequence (P31652 whole entry): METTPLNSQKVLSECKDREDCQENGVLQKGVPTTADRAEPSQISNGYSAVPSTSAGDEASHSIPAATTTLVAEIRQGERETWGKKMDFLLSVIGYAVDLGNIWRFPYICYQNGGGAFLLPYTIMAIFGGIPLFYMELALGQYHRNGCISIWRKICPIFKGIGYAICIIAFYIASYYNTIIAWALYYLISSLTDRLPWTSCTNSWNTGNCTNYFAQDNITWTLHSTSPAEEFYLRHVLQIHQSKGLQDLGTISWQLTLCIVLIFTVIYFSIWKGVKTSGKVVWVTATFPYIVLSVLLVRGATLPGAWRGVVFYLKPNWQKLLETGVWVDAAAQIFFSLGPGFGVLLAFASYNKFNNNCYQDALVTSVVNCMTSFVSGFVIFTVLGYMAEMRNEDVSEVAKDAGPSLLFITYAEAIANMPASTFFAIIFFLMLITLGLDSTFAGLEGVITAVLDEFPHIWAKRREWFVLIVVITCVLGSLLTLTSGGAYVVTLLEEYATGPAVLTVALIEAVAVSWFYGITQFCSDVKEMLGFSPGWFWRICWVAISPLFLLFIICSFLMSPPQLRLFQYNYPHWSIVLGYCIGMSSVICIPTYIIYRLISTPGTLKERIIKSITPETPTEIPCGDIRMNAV

[3] = molecular target: T3, cloned human 5-HT1A receptors (Homo sapiens, UniProt P08908); experiment: 35S-GTPγS binding assay, 5-HT1A function; type: biochemical; details: for IC50: antagonist potency, reversal of 8-OH-DPAT, read-out: 5-HT1A Function GTPγS IC50; for EC50: agonist potency
T3 construct: expressed in transfected cells
T3 sequence (P08908 1-422): T1 sequence (P08908 1-422)

[4] = maximum inhibitory effect, in brackets after IC50, read-out: 5-HT1A Function GTPγS (Imax)
[5] = maximum stimulatory effect, in brackets after EC50, read-out: 5-HT1A Function GTPγS (Emax)

Ki (5-HT1A receptor [1]) [µM]	IC50 (5-HT1A receptor [2]) [µM]	5-HT1A Function cAMP (Emax) (5-HT1A receptor [2]; in brackets after EC50 or IC50) [%]	Ki (serotonin transporter) [µM]	Emax (5-HT1A receptor [2]; in brackets after EC50 or IC50) [%]	inhibition at 1 µM (5-HT1A receptor [1]) [%]	EC50 (5-HT1A receptor [2]) [µM]	EC50 [3] [µM]	Emax [3, 5] [%]	Compound	IC50 [3] [µM]	Emax [3, 4] [%]
0.128	0.846	0	0.144	–	–	–	–	–	CC(Cc1c[nH]c2ccc(F)cc12)CN(CC1CC1)[C@H]1COc2c(F)ccc(C(N)=O)c2C1 (single isomer, unassigned) [Compound 155b]	–	–
–	–	–	0.525	–	48	–	–	–	COc1cccc2c(CCCNC3COc4c(F)ccc(C(N)=O)c4C3)c[nH]c12 (centres unmarked) [Compound 99, 8-fluoro-3-{[3-(7-methoxy-1H-indol-3-yl)propyl]amino}chromane-5-carboxamide]	4.02	100
0.0243	–	–	0.236	81	–	0.0967	–	–	CCN(CCCc1c[nH]c2ccc(OC)cc12)C1COc2c(F)ccc(C(N)=O)c2C1 (centres unmarked) [Compound 105, 3-{ethyl[3-(5-methoxy-1H-indol-3-yl)propyl]amino}-8-fluorochromane-5-carboxamide]	–	–
0.0369	–	–	0.0142	–	–	–	3.16	100	NC(=O)c1ccc(F)c2c1OCC(NCCCc1c[nH]c3ccc(F)cc13)C2 (centres unmarked) [Compound 119, 5-fluoro-3-{[3-(5-fluoro-1H-indol-3-yl)propyl]amino}chromane-8-carboxamide]	–	–
0.139	–	–	0.0225	–	–	–	1.1	67	CCCN(CCCc1c[nH]c2ccc(F)cc12)C1COc2c(C(N)=O)ccc(F)c2C1 (centres unmarked) [Compound 120, 5-fluoro-3-[[3-(5-fluoro-1H-indol-3-yl)propyl](propyl)amino]chromane-8-carboxamide]	–	–
0.0677	–	–	0.0418	–	–	–	3.82	70	NC(=O)c1ccc(F)c2c1OCC(N(CCCc1c[nH]c3ccc(F)cc13)CC1CC1)C2 (centres unmarked) [Compound 121, 3-{(cyclopropylmethyl)[3-(5-fluoro-1H-indol-3-yl)propyl]amino}-5-fluorochromane-8-carboxamide]	–	–
0.28	–	–	0.00381	–	–	–	2.26	100	NC(=O)c1ccc(F)c2c1OCC(NCCCCc1c[nH]c3ccc(F)cc13)C2 (centres unmarked) [Compound 123, 5-fluoro-3-{[4-(5-fluoro-1H-indol-3-yl)butyl]amino}chromane-8-carboxamide]	–	–
–	–	–	0.0099	–	48	–	0.698	41	CCCN(CCCCc1c[nH]c2ccc(F)cc12)C1COc2c(C(N)=O)ccc(F)c2C1 (centres unmarked) [Compound 124, 5-fluoro-3-[[4-(5-fluoro-1H-indol-3-yl)butyl](propyl)amino]chromane-8-carboxamide]	–	–
–	–	–	0.0545	–	47	–	0.608	59	NC(=O)c1ccc(F)c2c1OCC(NCCCc1c[nH]c3c(F)cc(F)cc13)C2 (centres unmarked) [Compound 128, 3-{[3-(5,7-difluoro-1H-indol-3-yl)propyl]amino}-5-fluorochromane-8-carboxamide]	–	–
0.0386	–	–	0.0432	–	–	–	1	83	NC(=O)c1cccc2c1C[C@@H](NCCCc1c[nH]c3ccc(F)cc13)CO2 [Compound 133b, (3R)-3-{[3-(5-fluoro-1H-indol-3-yl)propyl]amino}chromane-5-carboxamide]	–	–
0.00127	–	–	0.00334	–	–	–	0.043	100	CNC(=O)c1cccc2c1CC(N(CCCc1c[nH]c3c(F)cc(F)cc13)C1CCC1)CO2 (centres unmarked) [Compound 138, 3-{cyclobutyl[3-(5,7-difluoro-1H-indol-3-yl)propyl]amino}-N-methylchromane-5-carboxamide]	–	–
0.00483	–	–	0.0039	–	–	–	0.18	81	CCNC(=O)c1cccc2c1CC(N(CCCc1c[nH]c3c(F)cc(F)cc13)C1CCC1)CO2 (centres unmarked) [Compound 139, 3-{cyclobutyl[3-(5,7-difluoro-1H-indol-3-yl)propyl]amino}-N-ethylchromane-5-carboxamide]	–	–
0.0392	–	–	0.00378	–	–	–	1.02	65	CCCNC(=O)c1cccc2c1CC(N(CCCc1c[nH]c3c(F)cc(F)cc13)C1CCC1)CO2 (centres unmarked) [Compound 140, 3-{cyclobutyl[3-(5,7-difluoro-1H-indol-3-yl)propyl]amino}-N-propylchromane-5-carboxamide]	–	–
0.00769	–	–	0.00352	–	–	–	0.287	99	CC(C)NC(=O)c1cccc2c1CC(N(CCCc1c[nH]c3c(F)cc(F)cc13)C1CCC1)CO2 (centres unmarked) [Compound 141, 3-{cyclobutyl[3-(5,7-difluoro-1H-indol-3-yl)propyl]amino}-N-isopropylchromane-5-carboxamide]	–	–
0.00403	–	–	0.00388	–	–	–	0.122	54	O=C(NC1CC1)c1cccc2c1CC(N(CCCc1c[nH]c3c(F)cc(F)cc13)C1CCC1)CO2 (centres unmarked) [Compound 142, 3-{cyclobutyl[3-(5,7-difluoro-1H-indol-3-yl)propyl]amino}-N-cyclopropylchromane-5-carboxamide]	–	–
0.00304	0.505	–	0.0107	0	–	–	–	–	NC(=O)c1ccc(F)c2c1C[C@@H](N(CCCc1c[nH]c3c(F)cc(F)cc13)CC1CC1)CO2 [Compound 147, (3R)-3-{(cyclopropylmethyl)[3-(5,7-difluoro-1H-indol-3-yl)propyl]amino}-8-fluorochromane-5-carboxamide]	–	–
0.102	–	–	1.19	94	–	0.168	–	–	CC(C)CN(CCCc1c[nH]c2ccc(F)cc12)C1COc2cccc(C(N)=O)c2C1 (centres unmarked) [Compound 151, 3-[[3-(5-fluoro-1H-indol-3-yl)propyl](isobutyl)amino]chromane-5-carboxamide]	–	–
–	–	–	0.149	–	30	–	–	–	COc1cccc2c(CCN(C3CCC3)C3COc4c(F)ccc(C(N)=O)c4C3)coc12 (centres unmarked) [Compound 159, 3-{cyclobutyl[2-(7-methoxy-1-benzofuran-3-yl)ethyl]amino}-8-fluorochromane-5-carboxamide]	5	25
0.0142	0.301	–	0.498	0	–	–	–	–	CCCCN(CCCc1coc2c(OC)cccc12)C1COc2c(F)ccc(C(N)=O)c2C1 (centres unmarked) [Compound 166, 3-{butyl[3-(7-methoxy-1-benzofuran-3-yl)propyl]amino}-8-fluorochromane-5-carboxamide]	–	–
0.497	0.379	–	0.516	0	–	–	–	–	CCCN(CCCCc1coc2c(OC)cccc12)[C@H]1COc2c(F)ccc(C(N)=O)c2C1 [Compound 172, (3R)-8-fluoro-3-[[4-(7-methoxy-1-benzofuran-3-yl)butyl](propyl)amino]chromane-5-carboxamide]	–	–
0.0216	–	–	0.0156	89	–	0.117	–	–	CCN(CCCCn1ccc2ccc(F)cc21)C1COc2c(F)ccc(C(N)=O)c2C1 (centres unmarked) [Compound 193, 3-{Ethyl[4-(6-fluoro-1H-indol-1-yl)butyl]amino}-8-fluorochromane-5-carboxamide]	–	–

Compound	Ki (5-HT1A receptor [1]) [µM]	IC50 (5-HT1A receptor [2]) [µM]	5-HT1A Function cAMP (Emax) (5-HT1A receptor [2]; in brackets after EC50 or IC50) [%]	Ki (serotonin transporter) [µM]	Emax (5-HT1A receptor [2]; in brackets after EC50 or IC50) [%]	inhibition at 1 µM (5-HT1A receptor [1]) [%]	EC50 (5-HT1A receptor [2]) [µM]	EC50 [3] [µM]	Emax [3, 5] [%]	IC50 [3] [µM]	Emax [3, 4] [%]
N#Cc1ccc2[nH]cc(CCCN(C3CCC3)[C@@H]3COc4c(F)ccc(C(N)=O)c4C3)c2c1 [Compound 97a, (3S)-3-[[3-(5-cyano-1H-indol-3-yl)propyl](cyclobutyl)amino]-8-fluorochromane-5-carboxamide]	0.258	0.581	–	0.009	0	–	–	–	–	–	–
NC(=O)c1ccc(F)c2c1CC(N(CCCCn1ccc3cccc(F)c31)CC1CC1)CO2 (centres unmarked) [Compound 191, 3-{(Cyclopropylmethyl)[4-(7-fluoro-1H-indol-1-yl)butyl]amino}-8-fluorochromane-5-carboxamide]	0.0193	–	–	0.0387	–	–	–	–	–	0.204	74
NC(=O)c1ccc(F)c2c1CC(N(CCCCn1ccc3cccc(F)c31)C1CCC1)CO2 (centres unmarked) [Compound 192, 3-{Cyclobutyl[4-(7-fluoro-1H-indol-1-yl)butyl]amino}-8-fluorochromane-5-carboxamide]	0.0399	–	–	0.0393	–	–	–	–	–	1.75	86
NC(=O)c1ccc(F)c2c1CC(N(CCCCn1ccc3ccc(F)cc31)C1CCC1)CO2 (centres unmarked) [Compound 196, 3-{Cyclobutyl[4-(6-fluoro-1H-indol-1-yl)butyl]amino}-8-fluorochromane-5-carboxamide]	0.0128	–	–	0.123	–	–	–	–	–	0.428	100
NC(=O)c1ccc(F)c2c1CC(N(CCCCn1ccc3cc(F)ccc31)C1CCC1)CO2 (centres unmarked) [Compound 200, 3-{Cyclobutyl[4-(5-fluoro-1H-indol-1-yl)butyl]amino}-8-fluorochromane-5-carboxamide]	0.0108	–	–	0.241	–	–	–	–	–	1.11	100

Source: US20050032873A1, “3-Amino chroman and 2-amino tetralin derivatives” (Wyeth, priority 2003, published 2005)
